These results are taken from paper PMC4188773 (Cell calcium, 2014).

≈ marks a conversion by molar mass, not a printed value. Where “and” joins values, the source holds several entries; their conditions need not be identical. Equal values may be shown once. Entries after “also recorded” stand apart in the source; their conditions may differ. Read-outs that look alike come from different tables or passages of the source.

Data set [1] addresses T1, mouse eugenol OR (mOR-EG) (Mus musculus, UniProt Q920P2).
T1 sequence (Q920P2 1-313): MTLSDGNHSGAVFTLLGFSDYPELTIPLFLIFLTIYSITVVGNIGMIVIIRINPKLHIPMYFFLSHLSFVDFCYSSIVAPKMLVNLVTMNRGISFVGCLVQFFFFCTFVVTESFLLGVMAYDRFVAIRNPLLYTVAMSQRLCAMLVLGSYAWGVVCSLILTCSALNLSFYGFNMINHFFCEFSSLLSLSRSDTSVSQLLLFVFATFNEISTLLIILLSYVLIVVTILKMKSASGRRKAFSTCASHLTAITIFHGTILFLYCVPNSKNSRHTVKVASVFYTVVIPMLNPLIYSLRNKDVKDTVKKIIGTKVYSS
Kind of data set: dual read-out assay, mOR-EG/PLC and mOR-EG/AC responses compared. To be noted: for AC-/PLC- mediated Ca2+ response (result in words): both read-outs, up to 1-5 mM; for functional bias between PLC and AC pathways (in words): pair-wise comparison of EC50 values; for potency in mOR-EG/PLC signaling in comparison to mOR-EG/AC signaling: ratio of EC50 values. The format is cell-based.

Data set [2] addresses T1, mouse eugenol OR (mOR-EG). Kind of data set: mOR-EG/PLC Ca2+ imaging: mOR-EG + Gα15 in HEK293T cells. Particulars: for decay time 90% to 10%, PLC-dependent Ca2+ response / time of peak, PLC-dependent Ca2+ response / time to rise 10% to 90%, PLC-dependent Ca2+ response: saturating response parameters. The format is cell-based.
Data set [3] has as its target T1, mouse eugenol OR (mOR-EG). Description: mOR-EG/AC Ca2+ imaging: mOR-EG + Gαolf + CNGC-camp in HEK293T cells. The format is cell-based. To be noted: for decay time 90% to 10%, AC-dependent Ca2+ response / time of peak, AC-dependent Ca2+ response / time to rise 10% to 90%, AC-dependent Ca2+ response: saturating response parameters; for normalized peak magnitude, mOR-EG/AC response: normalized to eugenol.

For data set [4] the following is noted: pH7; source not stated; cited from earlier work.
For data set [5] the following is noted: source not stated; cited from earlier work.
The next data set has as its system adenylate cyclase. Description: forskolin-induced Ca2+ influx in mOR-EG/Gαs.
Another data set has as its system HEK293T cells. Kind of data set: control HEK293T cells lacking components of the read-out. To be noted: eugenol 0.5-2mM; forskolin 20μM; n>500. The format is cell-based.
In another data set the test system is CNGC-camp. Description: stimulation of endogenous purinergic Gαq pathway, CNGC-camp read-out. The format is cell-based, rat. Particulars: 100μM, saturating.
For data set [6], the target named is T1, mouse eugenol OR (mOR-EG). The format is cell-based. Particulars: up to 1 mM.

With `CC(C)(C)c1ccc(O)cc1` [4-tert-butylphenol], the “AC-/PLC- mediated Ca2+ response (result in words)” value (“AC-/PLC- mediated Ca2+ response” below) in data set [1] is given as “failed to activate any response; also recorded: no effects”.
For `CCC(C)(C)C1CCC(=O)CC1` [orivone], in data set [2], the “decay time 90% to 10%, PLC-dependent Ca2+ response” value was found to be 47.6 ± 4.1 s; the “time of peak, PLC-dependent Ca2+ response” value stood at 29.8 ± 2.3 s; the “time to rise 10% to 90%, PLC-dependent Ca2+ response” value was determined as 8 ± 1 s. Further, in [3], the “decay time 90% to 10%, AC-dependent Ca2+ response” value came out at 101 ± 5 s; the “time of peak, AC-dependent Ca2+ response” value amounted to 94.9 ± 5.3 s; the “time to rise 10% to 90%, AC-dependent Ca2+ response” value is 36.4 ± 2.6 s. Moreover, the “functional bias between PLC and AC pathways (in words)” value in data set [1] is given as “activated both pathways with similar EC50 values”.
As usually defined, the EC50 is the concentration needed to bring the measured effect to its halfway point. As usually defined, the solubility is the dissolved amount per volume that the medium holds. Broadly, the logP is a log measure of how a compound divides between an organic and an aqueous phase. As for `CCOc1cc(C=O)ccc1O` [ethyl vanillin], in [2], the EC50 was 1490 µM; the “decay time 90% to 10%, PLC-dependent Ca2+ response” value amounted to 52.3 ± 4.8 s; the “time of peak, PLC-dependent Ca2+ response” value came out at 22.6 ± 1.5 s; the “time to rise 10% to 90%, PLC-dependent Ca2+ response” value was determined as 9.5 ± 0.8 s. Moreover, in data set [3], the EC50 worked out at 2170 ± 131 µM; the “decay time 90% to 10%, AC-dependent Ca2+ response” value worked out at 115.7 ± 10.8 s; the “time of peak, AC-dependent Ca2+ response” value was found to be 91.6 ± 5.8 s; the “time to rise 10% to 90%, AC-dependent Ca2+ response” value was found to be 36.9 ± 3.3 s. Also, the “functional bias between PLC and AC pathways (in words)” value in [1] is “activated both pathways with similar EC50 values”. Besides, the solubility in [4] was 11 mM (≈ 1830 µg/mL). For the same compound, the logP in data set [5] is on record as 1.7.
With `COC(=O)c1c(C)cc(O)c(C)c1O` [mousse cristal], in data set [2], the “decay time 90% to 10%, PLC-dependent Ca2+ response” value worked out at 74 ± 4 s; the “time of peak, PLC-dependent Ca2+ response” value turned out to be 30.7 ± 1.4 s; the “time to rise 10% to 90%, PLC-dependent Ca2+ response” value is 14.1 ± 0.8 s and 14 ± 1 s. In addition, in [3], the “faster Trise of mOR-EG/AC response than eugenol” value is reported as 30%; the “normalized peak magnitude, mOR-EG/AC response” value is 1.12±0.13; the “decay time 90% to 10%, AC-dependent Ca2+ response” value turned out to be 117.6 ± 5.3 s; the “time of peak, AC-dependent Ca2+ response” value stood at 107.3 ± 2.4 s. In addition, the “time to rise 10% to 90%, AC-dependent Ca2+ response” value in data set [3] amounted to 32.6 ± 1.6 s. In [1], the “AC-/PLC- mediated Ca2+ response” value was “full agonist for mOR-EG”; the “functional bias between PLC and AC pathways (in words)” value is on record as “biased activation of the PLC pathway; also recorded: strongly activating both pathways yet with a different apparent affinity”; the “potency in mOR-EG/PLC signaling in comparison to mOR-EG/AC signaling” value is listed as “more than 2 fold”. Also, the logP in [5] is given as 10/2.8.
As for `C=C[C@@]1(C)CC(=O)[C@]2(O)[C@@]3(C)[C@@H](O)CCC(C)(C)[C@@H]3[C@H](O)[C@H](OC(C)=O)[C@@]2(C)O1` [forskolin], the “Trise of Ca2+ influx on re-addition of 2 mM Ca2+” value in the data set on adenylate cyclase (10μM forskolin applied in 0-Ca2+, Ca2+ added 60 s after stimulation (Fig.3F)) was determined as 24.3 ± 3.1 s. In the data set with adenylate cyclase (10 μM, 5 sec pulse, mOR-EG/Gαs(olf) cells), the “effect on Ca2+ concentration” value was “increased the Ca^2+ concentration”. Besides, the “Trise of response to forskolin” value in the data set on adenylate cyclase (10μM, extracellular Ca2+ present (Fig.3E)) was 76.7 ± 5.7 s. The “Ca2+ response in cells expressing mOR-EG and Gαolf without CNGC-camp” value in the data set on HEK293T cells was “did not generate noticeable Ca^2+ responses”.
For the compound `C=C(C)[C@@H]1CCC2=CC(=O)C[C@@H](C)[C@]2(C)C1` [nootkatone], the “AC-/PLC- mediated Ca2+ response” value in data set [1] is “failed to activate any response; also recorded: no effects”. For the same compound, the solubility in [4] was 0.24 mM (≈ 52.4 µg/mL). Also, in data set [5], the logP was 3.8.
`C=CCc1ccc(OC)c(OC)c1` [methyl eugenol]: in data set [2], the 50% effective concentration (EC50) is 165 µM; the “decay time 90% to 10%, PLC-dependent Ca2+ response” value is 39.8 ± 2.3 s; the “time of peak, PLC-dependent Ca2+ response” value was 19.8 ± 1.2 s; the “time to rise 10% to 90%, PLC-dependent Ca2+ response” value came out at 5.4 ± 0.6 s. In addition, in data set [3], the EC50 was 177 ± 11 µM; the “decay time 90% to 10%, AC-dependent Ca2+ response” value was 101.2 ± 6 s; the “time of peak, AC-dependent Ca2+ response” value was 92 ± 3 s; the “time to rise 10% to 90%, AC-dependent Ca2+ response” value stood at 41.6 ± 2.2 s. In addition, the “functional bias between PLC and AC pathways (in words)” value in [1] was “activated both pathways with similar EC50 values”. Moreover, the solubility in data set [4] is 4.3 mM (≈ 766 µg/mL). Further, in [5], the logP is reported as 2.7.
With `Nc1ncnc2c1ncn2[C@@H]1O[C@H](COP(=O)(O)OP(=O)(O)OP(=O)(O)O)[C@@H](O)[C@H]1O` [ATP], the “activation of CNGC-camp” value in the data set on CNGC-camp is recorded as “did not induce appreciable activation of CNGC-camp”.
For the compound isoeugenol, the “normalized peak magnitude, mOR-EG/PLC response” value in [2] (normalized to eugenol) came out at 0.38±0.03. Besides, in [2], the “decay time 90% to 10%, PLC-dependent Ca2+ response” value turned out to be 54.5 ± 2.6 s; the “time of peak, PLC-dependent Ca2+ response” value came out at 37.1 ± 3.5 s; the “time to rise 10% to 90%, PLC-dependent Ca2+ response” value came to 14.8 ± 1.6 s. In data set [3], the “normalized peak magnitude, mOR-EG/AC response” value came to 0.14±0.11; the “decay time 90% to 10%, AC-dependent Ca2+ response” value is 104 ± 4.8 s; the “time of peak, AC-dependent Ca2+ response” value was determined as 95.3 ± 4.8 s; the “time to rise 10% to 90%, AC-dependent Ca2+ response” value is 36.7 ± 2.7 s. Moreover, the “slow Gαs(olf)-dependent response in dual-response cells” value in data set [6] is “failed to evoke noticeable Gαs(olf)-dependent Ca^2+ signal”. The “slow Gαs(olf)-dependent response in dual-response cells” value in data set [6] (listed as Isoeugenol) is given as “not able to evoke a slow Gαs(olf)-dependent response”. Besides, in data set [1], the “functional bias between PLC and AC pathways (in words)” value was “biased activation of the PLC pathway”; the “potency in mOR-EG/PLC signaling in comparison to mOR-EG/AC signaling” value is recorded as ~ 8 fold.
Regarding `C=CCc1ccc(OC(C)=O)c(OC)c1` [acetyl eugenol], in [2], the EC50 was 348 µM; the “decay time 90% to 10%, PLC-dependent Ca2+ response” value came out at 44 ± 1 s; the “time of peak, PLC-dependent Ca2+ response” value was 19.6 ± 0.9 s; the “time to rise 10% to 90%, PLC-dependent Ca2+ response” value was found to be 7.7 ± 0.4 s. Also, in data set [3], the EC50 turned out to be 373 ± 49 µM; the “decay time 90% to 10%, AC-dependent Ca2+ response” value is 125.5 ± 5.1 s; the “time of peak, AC-dependent Ca2+ response” value came to 90.8 ± 3.4 s; the “time to rise 10% to 90%, AC-dependent Ca2+ response” value is 27.6 ± 1.7 s. In [1], the “functional bias between PLC and AC pathways (in words)” value was “activated both pathways with similar EC50 values”. Moreover, the solubility in [4] is 1.4 mM (≈ 289 µg/mL). For the same compound, the logP in [5] is 2.7.
Consider `C/C=C/c1ccc2c(c1)OCO2` [isosafrole], for which the “AC-/PLC- mediated Ca2+ response” value in [1] was “failed to activate any response; also recorded: non agonist, antagonist (*)”. For the same compound, in [4], the solubility is 0.6 mM (≈ 97.3 µg/mL). Also, in data set [5], the logP is 3.9.
`CC(=O)CCc1ccc(O)cc1` [raspberryketone, raspberry ketone]: the “AC-/PLC- mediated Ca2+ response” value in [1] is listed as “no effects”; in data set [1] (listed as raspberry ketone) it was “failed to activate any response”.
With `CC(C)c1ccc(O)cc1` [4-isopropylphenol], the “AC-/PLC- mediated Ca2+ response” value in [1] is recorded as “failed to activate any response; also recorded: no effects”. Also, the solubility in data set [4] is 15 mM (≈ 2040 µg/mL). In data set [5], the lipophilicity (logP) is 3.
In the case of `COc1cc(C=O)ccc1O` [vanillin], in data set [2], the “decay time 90% to 10%, PLC-dependent Ca2+ response” value worked out at 48 ± 2.9 s; the “time of peak, PLC-dependent Ca2+ response” value worked out at 18.6 ± 0.9 s; the “time to rise 10% to 90%, PLC-dependent Ca2+ response” value came out at 8.3 ± 0.5 s. Further, in data set [3], the “decay time 90% to 10%, AC-dependent Ca2+ response” value is 101.7 ± 2.6 s; the “time of peak, AC-dependent Ca2+ response” value came out at 85.3 ± 2.9 s; the “time to rise 10% to 90%, AC-dependent Ca2+ response” value is 31.4 ± 1.3 s. Further, the “functional bias between PLC and AC pathways (in words)” value in [1] is listed as “activated both pathways with similar EC50 values”. In addition, the solubility in data set [4] is 28 mM (≈ 4260 µg/mL).
